Assays:
ceramide levels = assay: Ceramide levels by ELISA in lung and plasma of P. aeruginosa-infected mice; format: in vivo
Experimental: Fenretinide Diet Supplementation. Examples 2 to 6: fenretinide (Sigma-Aldrich, Oakville, ON) powder was resuspended in 95% ethanol and subsequently incorporated in the Peptamen liquid diet. It was protected from light and kept at 4° C. before being given to the mice (5 mg/kg per day per mouse). Mock-treated diets were prepared similarly by adding ethanol to the Peptamen diet but omitting the fenretinide supplementation. The diet was given every morning for 28 consecutive days with specific monitoring of the quantity consumed by the mice in each cage. Examples 7 to 12: fenretinide powder was kindly provided by Dr. Robert Smith (NIH; Bethesda, Md., USA). Fenretinide was resuspended in 95% ethanol to make a 2 μg/μL concentration. Approximately 40 μL of this preparation was incorporated into the Peptamen liquid diet (5 mg/kg per day per mouse). The prepared food containing fenretinide was then stored in the dark at 4° C. for no more than 3 hours prior to being administered to the mice. To ensure that the entire drug dose was consumed, the mice were given 10 mL of fenretinide-treated Peptamen, which represents ⅔ of the daily mouse food consumption, in the late afternoon. […] During the treatment period each mouse was kept in a separate cage (including WT mice) and was monitored to ensure that the entire amount of Peptamen containing the fenretinide or with out was consumed. […]

[1] = Weight loss after P. aeruginosa lung infection; format: in vivo, mice; settings: for Mean weight loss (% of initial weight): mean ± SEM
Experimental: Fenretinide Diet Supplementation. Examples 2 to 6: fenretinide (Sigma-Aldrich, Oakville, ON) powder was resuspended in 95% ethanol and subsequently incorporated in the Peptamen liquid diet. It was protected from light and kept at 4° C. before being given to the mice (5 mg/kg per day per mouse). Mock-treated diets were prepared similarly by adding ethanol to the Peptamen diet but omitting the fenretinide supplementation. The diet was given every morning for 28 consecutive days with specific monitoring of the quantity consumed by the mice in each cage. Examples 7 to 12: fenretinide powder was kindly provided by Dr. Robert Smith (NIH; Bethesda, Md., USA). Fenretinide was resuspended in 95% ethanol to make a 2 μg/μL concentration. Approximately 40 μL of this preparation was incorporated into the Peptamen liquid diet (5 mg/kg per day per mouse). The prepared food containing fenretinide was then stored in the dark at 4° C. for no more than 3 hours prior to being administered to the mice. To ensure that the entire drug dose was consumed, the mice were given 10 mL of fenretinide-treated Peptamen, which represents ⅔ of the daily mouse food consumption, in the late afternoon. The remaining 5 mL of Peptamen (without fenretinide) was given the following morning. Mice were treated twice a week for 4 weeks. During the treatment period each mouse was kept in a separate cage (including WT mice) and was monitored to ensure that the entire amount of Peptamen containing the fenretinide or with out was consumed. The diet for the mock-treated control group was prepared and administered similarly to that described above, by adding the same volume of ethanol to the Peptamen diet but omitting the fenretinide supplementation.
(§1) Mouse Lung Infection. Mice were anaesthetized with a combination of ketamine (7.5 mg/mL) and xylazine (0.5 mg/mL) administered intraperitoneally at a dose of 20 mL/kg of body weight. Once the mouse was successfully anaesthetized, the animal was installed under binoculars (Microscope M650, Wild Leitz, Willowdale, ON) in the vertical position and held on a restraining board by holding the animal by its upper incisor teeth (Guilbault, et al. (2005) supra). The tongue was then gently pulled to the side of the mouth and a 26-G gavage needle was inserted into the mouth and guided through the pharynx gently touching the vocal cords to see the lumen of the trachea; the needle was then introduced into the trachea to reach the lung for the bilateral injection of the 50 microliter inoculum. After inoculation, the animal regained righting reflex within an hour. A final dose of 1×10^6 P. aeruginosa was used for infection using wild-type and Cftr-KO mice. Mice were monitored 3 times daily; the maximum weight loss allowed was 15%. Mice were sacrificed by CO2 overdose.

alveolar cells = assay: Alveolar (inflammatory) cells in bronchoalveolar lavage fluid of infected mice; format: in vivo
Experimental: as §1
Bronchoalveolar Lavage. Circulation was flushed by slow intracardiac infusion of divalent cation-free Hank's balanced salt solution (HBSS; INVITROGEN™, Mississauga, ON). The trachea was cannulated with a 22-gauge intravenous catheter placement unit (CRITIKON®, GE Medical Systems, Tampa, Fla.) connected to two 5 mL syringes via a 3-way stopcock with a rotating collar (Namic U.S.A., Glens Falls, N.Y.). The alveoli of infected mice were washed 3 times with 1.4 mL of divalent cation-free HBSS. The volume of bronchoalveolar lavage fluid recovered was approximately 1.2 mL. […] Cells were resuspended in 0.5 mL of Dulbecco's Modified Eagle Medium (DMEM; INVITROGEN™) supplemented with 10% fetal bovine serum (FBS; Hyclone, Logan, Utah), diluted in Turk's solution and counted using a hematocytometer. The proportions of macrophages, lymphocytes and PMN were calculated after counting approximately 300 alveolar cells on cytospin preparations stained with DIFF-QUICK® stain (American Scientific Products, McGaw Park, Ill.).

## CC1=C(/C=C/C(C)=C/C=C/C(C)=C/C(=O)Nc2ccc(O)cc2)C(C)(C)CCC1 [fenretinide, all-trans-N-(4-hydroxyphenyl) retinamide]
Ceramide levels; P. aeruginosa-infected Cftr-KO mice
  Increase in ceramide levels vs mock-treated controls: approximately 7 fold
Ceramide levels; P. aeruginosa-infected WT mice
  Increase in ceramide levels vs untreated counterparts: approx. 2 fold
[1]; Cftr-KO mice, day 1 post-infection
  Mean weight loss (% of initial weight): −4.0 ± 1.1 % of initial weight
[1]; Cftr-KO mice, day 2 post-infection
  Mean weight loss (% of initial weight): −12.9 ± 0.9 % of initial weight
[1]; Cftr-KO mice, day 3 post-infection
  Mean weight loss (% of initial weight): −15.3 ± 1.8 % of initial weight
[1]; Wild-type mice, day 1 post-infection
  Mean weight loss (% of initial weight): −4.8 ± 0.4 % of initial weight
[1]; Wild-type mice, day 2 post-infection
  Mean weight loss (% of initial weight): −9.9 ± 0.5 % of initial weight
[1]; Wild-type mice, day 3 post-infection
  Mean weight loss (% of initial weight): −11.1 ± 1.2 % of initial weight
[1]; day 1 to day 3 post-infection
  Effect on mean weight loss, fenretinide-treated vs mock-treated: no significant difference
Alveolar cells; Cftr-KO mice, day 3 post-infection (p=0.530 vs mock-treated)
  Mean total number of alveolar cells in the lungs: 1.1×10^6±1.3×10^6
Alveolar cells; day 3 post-infection, wild-type and Cftr-KO, neutrophils, monocytes, lymphocytes
  Effect on cells recruited into the lungs of infected mice vs mock-treated: no effect
Alveolar cells; wild-type mice, day 3 post-infection (p=0.280 vs mock-treated)
  Mean total number of alveolar cells in the lungs: 1.2×10^6±1.0×10^6

From US8680153B2, “Method for correcting a lipid imbalance in a subject” (The Royal Institution for the Advancement of …, priority 2005, dated 2014)
